The source of these data is PMC7402352, “Discovery of Novel Non-Steroidal Cytochrome P450 17A1 Inhibitors as Potential Prostate Cancer Agents” (International Journal of Molecular Sciences, 2020).

Broadly, the Kd is a measure of binding affinity in units of concentration. As a reminder, the IC50 is the midpoint of a concentration-inhibition curve.

For test [1], the target named is T1, human cytochrome P450 17A1 (Homo sapiens, UniProt P05093).
T1 construct: made in house
T1 sequence (P05093 1-508): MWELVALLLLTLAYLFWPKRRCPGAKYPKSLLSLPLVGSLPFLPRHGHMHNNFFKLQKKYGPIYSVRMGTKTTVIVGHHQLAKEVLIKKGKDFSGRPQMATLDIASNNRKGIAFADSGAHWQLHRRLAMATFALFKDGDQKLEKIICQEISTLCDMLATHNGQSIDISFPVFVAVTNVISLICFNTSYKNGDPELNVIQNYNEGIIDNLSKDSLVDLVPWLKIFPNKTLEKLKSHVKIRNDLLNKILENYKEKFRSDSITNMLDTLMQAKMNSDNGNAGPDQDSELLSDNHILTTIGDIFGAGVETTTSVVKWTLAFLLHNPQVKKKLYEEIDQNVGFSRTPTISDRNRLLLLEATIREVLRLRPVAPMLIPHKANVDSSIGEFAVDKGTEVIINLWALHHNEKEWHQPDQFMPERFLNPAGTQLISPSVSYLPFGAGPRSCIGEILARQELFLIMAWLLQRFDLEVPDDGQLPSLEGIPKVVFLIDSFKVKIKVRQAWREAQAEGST
The experiment in a line: Spectral binding assay (CYP17A1 ligand binding). The settings on record: purified recombinant human CYP17A1, spectral titration. The text has this:
The target compounds were initially tested for binding mode and affinity for CYP17A1 using a spectral binding assay. This assay can distinguish the mode of interaction, with a blue shift of the Soret absorbance occurring when ligand displaces water from the heme iron to generate a five-coordinate iron without direct coordination to the heme iron (type I, similar to most substrates) or a red shift of the Soret peak when the ligand nitrogen replaces the water to directly interact with the six-coordinate iron (type II, similar to many inhibitors). […] This 3-pyridyl fragment is also found in abiraterone.
Initial ligand binding was evaluated by measuring absorbance changes in CYP17A1 upon addition of ligands. Purified recombinant human cytochrome P450 17A1 enzyme (1 µM) in buffer (25 mM potassium phosphate, pH 7.4, 200 mM NaCl, 20% glycerol) was titrated with ligands. Ligands were dissolved in DMSO and added to three concentrations (500, 1000, and 2000 nM). The spectral intensity difference (ΔA) was measured as difference between […]. The Amin was typically at ~410 nm and Amax at ~440 nm for the type II changes observed for these ligands.
S2. Binding spectra and CYP IC50 curves
Difference spectrum of cytochrome P450 17A1 with vs. without compound 1a (2 µM).
All compounds are type II and display the same shift as the example above.
(§1) (1 picture or pasted object on this page, not shown here)

For another test, the target named is T2, human CYP17A1 (Homo sapiens, UniProt P05093).
T2 construct: made in house
T2 sequence (P05093 24-508 limits assumed): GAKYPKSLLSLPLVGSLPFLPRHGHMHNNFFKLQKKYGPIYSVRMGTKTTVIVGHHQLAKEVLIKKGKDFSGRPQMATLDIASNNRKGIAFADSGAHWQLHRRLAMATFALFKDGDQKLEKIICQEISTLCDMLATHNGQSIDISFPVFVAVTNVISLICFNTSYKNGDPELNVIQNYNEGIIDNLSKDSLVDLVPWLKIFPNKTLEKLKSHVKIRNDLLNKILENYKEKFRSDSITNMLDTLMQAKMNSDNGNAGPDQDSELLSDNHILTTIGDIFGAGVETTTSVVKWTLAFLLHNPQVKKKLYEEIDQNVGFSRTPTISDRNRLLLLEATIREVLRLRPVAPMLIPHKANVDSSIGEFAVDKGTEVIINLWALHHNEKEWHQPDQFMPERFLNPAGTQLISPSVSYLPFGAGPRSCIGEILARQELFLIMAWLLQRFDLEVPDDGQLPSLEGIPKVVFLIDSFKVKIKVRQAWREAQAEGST
As to the kind of experiment: Cytochrome P450 17A1 progesterone 17α-hydroxylation inhibition assay. In kind it is biochemical. The following applies: recombinant purified CYP17A1. How it is done: Regardless of their binding affinity, all compounds were tested for their ability to inhibit progesterone 17α-hydroxylation by recombinant purified CYP17A1 (Supplementary Materials S2).
Purified recombinant human CYP17A1 (20 pmol) and human full-length cytochrome P450 reductase (80 pmol) were used to convert progesterone (purchased from Acros Organics, Fair Lawn, NJ, USA) (6 µM) to 17α-hydroxyprogesterone. Test inhibitors were dissolved in DMSO and initially tested in concentrations ranging from 1.3 to 41 µM. In subsequent assays the range of inhibitor concentrations was optimized to best define the IC50 of individual compounds. Reactions were run and the 17α -hydroxyprogesterone product measured by LC-MS as previously published.
IC50 curves for compounds inhibiting CYP17A1 progesterone 17-hydroxylation (black circles),
CYP21A2 progesterone 21-hydroxylation (red diamonds), CYP3A4 nifedipine metabolism
(green squares), and CYP2D6 quinidine metabolism (blue triangles).
as §1

Structures are written as SMILES.

Take `c1ccc2c(c1)ccn2-c1ccc(Nc2ccncc2)cc1` [Compound 1e]: the Kd in test [1] is 120 ± 34 nM. Moreover, the IC50 at human CYP17A1 is 560 ± 100 nM.

For the compound `c1cncc(Nc2ccc(-n3cnc4ccccc43)cc2)c1` [Compound 1c], the Kd in test [1] was found to be 96 ± 22 nM. For the same compound, the IC50 at human CYP17A1 was found to be 830 ± 190 nM.
